In ChEMBL document CHEMBL3297701, “Functionalization, cyclization and antiviral activity of A-secotriterpenoids” (Eur J Med Chem, 2014):

What was measured:
[1] = microbe, parasite or virus in culture; type: functional, Influenza A virus (A/ts1/1/A/FPV/Rostock/1934(H7N1)); conditions: Influenza A virus, 36 h
in vitro = conditions: chicken, primary chicken embryo cells
[2] = system: Human immunodeficiency virus 1; test: Antiviral activity against HIV-1 zmb infected in human MT-4 cells after 72 hrs by MTT assay; type: functional, organism-based, MT4
[3] = Selectivity ratio of MTD for human MT-4 cells to EC50 for HIV-1 zmb infected in human MT-4 cells; type: ADME, cell-based, MT4
[4] = Human immunodeficiency virus 1, zmb, MT4, 72 h, read-out: EC50

Row | SMILES | EC50 [1] | selectivity ratio (in vitro) | EC50 [2, 4] | selectivity ratio [3] | EC50 ([2]; mt4)
1 | C=C(C)[C@@H]1CC[C@]2(C(=O)O)CC[C@]3(C)[C@H](CC[C@@H]4[C@@](C)(CC#N)[C@H](C(C)(C)C=O)CC[C@]43C)[C@@H]12 | 7.7 µM | 3.5 | – | – | –
2 | C=C(C)[C@@H]1CC[C@]2(C(=O)OC)CC[C@]3(C)[C@H](CC[C@@H]4[C@@]5(C)C(C#N)=CC(C)(C)[C@@H]5CC[C@]43C)[C@@H]12 | – | – | 50.5 µM | 3.2 | –
3 | CC1(C)C=C(C#N)[C@]2(C)[C@H]3CC[C@@H]4[C@H]5[C@H]6OC[C@@]5(CCC6(C)C)CC[C@@]4(C)[C@]3(C)CC[C@@H]12 | – | – | – | – | Not Active
4 | C=C(C)[C@@H]1CC[C@]2(C(=O)O)CC[C@]3(C)[C@H](CC[C@@H]4[C@@](C)(CC#N)[C@H](C(C)(C)/C=N/O)CC[C@]43C)[C@@H]12 | 18.2 µM | 5.7 | 0.06 µM | 50 | –
5 | C=C(C)[C@@H]1CC[C@]2(C(=O)OC)CC[C@]3(C)[C@H](CC[C@@H]4[C@@](C)(CC#N)[C@H](C(C)(C)/C=N/O)CC[C@]43C)[C@@H]12 | 22.7 µM | 35.4 | – | – | Not Active
6 | CC(C)(/C=N/O)[C@@H]1CC[C@]2(C)[C@H](CC[C@@H]3[C@H]4[C@H]5OC[C@@]4(CCC5(C)C)CC[C@]32C)[C@@]1(C)CC#N | 58.7 µM | 7.2 | – | – | –
7 | C/N=C/C(C)(C)[C@@H]1CC[C@]2(C)[C@H](C(=O)C=C3[C@@H]4C[C@@](C)(C(=O)OC)CC[C@]4(C)CC[C@]32C)[C@@]1(C)CC#N | 51.9 µM | 15.1 | – | – | –
8 | C=C(C)[C@@H]1CC[C@]2(C(=O)OC)CC[C@]3(C)[C@H](CC[C@@H]4[C@@]5(C)C(C#N)=C(N)C(C)(C)[C@@H]5CC[C@]43C)[C@@H]12 | – | – | – | – | Not Active
9 | CC1(C)CC[C@]23CC[C@]4(C)[C@H](CC[C@@H]5[C@@]6(C)C(C#N)=C(N)C(C)(C)[C@@H]6CC[C@]54C)[C@H]2[C@H]1OC3 | – | – | – | – | Not Active
10 | C=C(C)[C@@H]1CC[C@]2(C(=O)O)CC[C@]3(C)[C@H](CC[C@@H]4[C@@]5(C)C/C(=N\O)C(=O)C(C)(C)[C@@H]5CC[C@]43C)[C@@H]12 | 12.9 µM | 64.1 | 0.06 µM | 51.5 | –
11 | C=C(C)[C@@H]1CC[C@]2(C(=O)OC)CC[C@]3(C)[C@H](CC[C@@H]4[C@@]5(C)C/C(=N\O)C(=O)C(C)(C)[C@@H]5CC[C@]43C)[C@@H]12 | 98 µM | 4.1 | – | – | –
12 | CC1(C)CC[C@]23CC[C@]4(C)[C@H](CC[C@@H]5[C@@]6(C)C/C(=N\O)C(=O)C(C)(C)[C@@H]6CC[C@]54C)[C@H]2[C@H]1OC3 | > 100 µM | – | – | – | –
13 | C=C(C)[C@@H]1CC[C@]2(C(=O)O)CC[C@]3(C)[C@H](CC[C@@H]4[C@@]5(C)C/C(=N\O)[C@H](O)C(C)(C)[C@@H]5CC[C@]43C)[C@@H]12 | 31.5 µM | 6.8 | – | – | –
14 | C=C(C)[C@@H]1CC[C@]2(C(=O)OC)CC[C@]3(C)[C@H](CC[C@@H]4[C@@]5(C)C/C(=N\O)[C@H](O)C(C)(C)[C@@H]5CC[C@]43C)[C@@H]12 | > 100 µM | – | – | – | –
15 | CC1(C)CC[C@]23CC[C@]4(C)[C@H](CC[C@@H]5[C@@]6(C)C/C(=N\O)[C@H](O)C(C)(C)[C@@H]6CC[C@]54C)[C@H]2[C@H]1OC3 | > 100 µM | – | – | – | –
16 | COC(=O)[C@@]1(C)CCC2(C)CC[C@]3(C)C(=CC(=O)[C@@H]4[C@@](C)(CC#N)[C@H](C(C)(C)C=O)CC[C@]43C)[C@@H]2C1 (single isomer, unassigned) | 53.5 µM | 15.1 | – | – | –
17 | COC(=O)[C@@]1(C)CCC2(C)CC[C@]3(C)C(=CC(=O)[C@@H]4[C@@]5(C)C/C(=N\O)C(=O)C(C)(C)[C@@H]5CC[C@]43C)[C@@H]2C1 (single isomer, unassigned) | > 100 µM | – | – | – | –
18 | COC(=O)[C@@]1(C)CCC2(C)CC[C@]3(C)C(=CC(=O)[C@@H]4[C@@]5(C)C/C(=N\O)[C@H](O)C(C)(C)[C@@H]5CC[C@]43C)[C@@H]2C1 (single isomer, unassigned) | 57.2 µM | 3.4 | – | – | –
